Experimental findings from patent US10544103B2, “5-HT2 antagonists” (ANAMAR AB, priority 2015, dated 2020) are described below.

The target of the experiment is T1, 5-HT2B receptor (Homo sapiens, UniProt P41595).
T1 construct: host or cells: CHO-K1
Kind of experiment: 5-HT2B receptor binding, 3H-LSD ligand displacement assay. As to conditions: for inhibition at 0.1 µM: 0.1 uM compound; for inhibition at 1 µM: 1 uM compound; for inhibition at 0.01 µM: 0.01 uM compound; for inhibition at 0.001 µM: 0.001 uM compound; for inhibition at 10 µM: 10 uM compound. How it is done: 5-HT2B receptor binding (performed at Eurofins Panlabs Taiwan, Ltd.) to human receptor protein expressed in CHO-K1 cells was determined in a ligand displacement assay using ^3H-lysergic acid diethylamide (LSD) as radioligand and ketanserine as a standard reference compound. Data is presented as % displacement of radioligand at indicated compound concentrations, see Table 1 and Table 2.

T1 sequence (P41595 whole entry): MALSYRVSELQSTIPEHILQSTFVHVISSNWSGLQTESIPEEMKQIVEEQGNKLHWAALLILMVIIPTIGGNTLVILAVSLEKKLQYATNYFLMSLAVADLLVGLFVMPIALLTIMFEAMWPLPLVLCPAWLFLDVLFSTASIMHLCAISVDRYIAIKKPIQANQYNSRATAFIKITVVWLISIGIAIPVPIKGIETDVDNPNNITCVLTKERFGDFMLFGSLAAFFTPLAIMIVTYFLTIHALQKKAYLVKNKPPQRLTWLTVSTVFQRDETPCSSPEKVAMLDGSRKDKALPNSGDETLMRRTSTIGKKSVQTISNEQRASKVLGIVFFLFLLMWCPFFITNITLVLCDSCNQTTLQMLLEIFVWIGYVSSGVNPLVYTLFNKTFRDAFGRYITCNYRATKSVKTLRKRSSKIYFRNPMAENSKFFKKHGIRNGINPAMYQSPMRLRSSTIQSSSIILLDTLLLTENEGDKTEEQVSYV

Consider `N=C(N)N1CCC(c2ccccc2F)=N1` [Example 11, 3-(2-Fluorophenyl)-4,5-dihydro-1H-pyrazole-1-carboximidamide], for which the inhibition at 0.1 µM worked out at 10% and the inhibition at 1 µM is 53%.
As for `COc1c(F)cccc1C1=NN(C(=N)N)CC1C` (stereo not drawn) [Example 47, 3-(3-Fluoro-2-methoxyphenyl)-4-methyl-4,5-dihydro-1H-pyrazole-1-carboximidamide], the inhibition at 0.01 µM was 15%, the inhibition at 0.1 µM was determined as 68% and the inhibition at 1 µM worked out at 92%.
For the compound `COc1ccccc1C1=NN(C(=N)Nc2ccc(F)cc2)CC1C` (stereo not drawn) [Example 100, N-(4-Fluorophenyl)-3-(2-methoxyphenyl)-4-methyl-4,5-dihydro-1H-pyrazole-1-carboximidamide], the inhibition at 0.001 µM worked out at 19%, the inhibition at 0.01 µM was determined as 27% and the inhibition at 0.1 µM came to 78%.
Take `CC1CN(C(=N)Nc2ccccc2)N=C1c1ccccc1O` (stereo not drawn) [Example 97, 3-(2-Hydroxyphenyl)-4-methyl-N-phenyl-4,5-dihydro-1H-pyrazole-1-carboximidamide]: the inhibition at 0.001 µM came out at 62%, the inhibition at 0.01 µM came to 99% and the inhibition at 0.1 µM came to 105%.
In the case of `CC1CN(C(=N)NCc2ccc(Cl)cc2)N=C1c1ccccc1O` (stereo not drawn) [Example 55, N-(4-Chlorobenzyl)-3-(2-hydroxyphenyl)-4-methyl-4,5-dihydro-1H-pyrazole-1-carboximidamide], the inhibition at 0.001 µM amounted to 16% and the inhibition at 0.01 µM was 67%.
Consider `CC1CN(C(=N)N)N=C1c1cccc(F)c1O` (stereo not drawn) [Example 48, 3-(3-Fluoro-2-hydroxyphenyl)-4-methyl-4,5-dihydro-1H-pyrazole-1-carboximidamide], for which the inhibition at 0.01 µM came to 54%, the inhibition at 0.1 µM was 85% and the inhibition at 1 µM is 95%.
For the compound `COc1ccccc1C1=NN(C(=N)NCC(F)(F)C(F)(F)C(F)(F)F)CC1C` (stereo not drawn) [Example 92, N-(2,2,3,3,4,4,4-Heptafluorobutyl)-3-(2-methoxyphenyl)-4-methyl-4,5-dihydro-1H-pyrazole-1-carboximidamide], the inhibition at 0.001 µM was -3%, the inhibition at 0.01 µM is 22% and the inhibition at 0.1 µM worked out at 78%.
Turning to `CCOC(=O)NC(=N)N1CC(C)C(c2cccc(Cl)c2O)=N1` (stereo not drawn) [Example 119, Ethyl ((3-(3-chloro-2-hydroxyphenyl)-4-methyl-4,5-dihydro-1H-pyrazol-1-yl)(imino)methyl)carbamate], the inhibition at 0.01 µM came to 50%, the inhibition at 0.1 µM amounted to 89% and the inhibition at 1 µM was 99%.
In the same order, the values of `CC1CN(C(=N)N)N=C1c1c[nH]c2ccccc12` (stereo not drawn) [Example 70, 3-(1H-Indol-3-yl)-4-methyl-4,5-dihydro-1H-pyrazole-1-carboximidamide] are 38%, 84% and 98%.
Turning to `COc1ccc(CNC(=N)N2CC(C)C(c3ccccc3O)=N2)cc1` (stereo not drawn) [Example 59, 3-(2-Hydroxyphenyl)-N-(4-methoxybenzyl)-4-methyl-4,5-dihydro-1H-pyrazole-1-carboximidamide], the inhibition at 0.001 µM came to 20% and the inhibition at 0.01 µM came to 74%.
Turning to `CC1(C)CN(C(=N)N)N=C1c1ccccc1O` [Example 32, 3-(2-Hydroxyphenyl)-4,4-dimethyl-4,5-dihydro-1H-pyrazole-1-carboximidamide], the inhibition at 0.1 µM came to 28% and the inhibition at 1 µM is 79%.
As for `COc1ccccc1C1=NN(C(=N)N)CC1C` (stereo not drawn) [Example 18, 3-(2-Methoxyphenyl)-4-methyl-4,5-dihydro-1H-pyrazole-1-carboximidamide], the inhibition at 1 µM was found to be 89% and the inhibition at 10 µM came out at 101%.
Consider `CCCCNC(=N)N1CC(C)C(c2cccc(Cl)c2OC)=N1` (stereo not drawn) [Example 78, N-butyl-3-(3-chloro-2-methoxyphenyl)-4-methyl-4,5-dihydro-1H-pyrazole-1-carboximidamide], for which the inhibition at 0.001 µM came out at 49%, the inhibition at 0.01 µM is 85% and the inhibition at 0.1 µM worked out at 98%.
On to `COc1ccccc1C1=NN(C(=N)NCC(F)(F)F)CC1C` (stereo not drawn) [Example 94, 3-(2-Methoxyphenyl)-4-methyl-N-(2,2,2-trifluoroethyl)-4,5-dihydro-1H-pyrazole-1-carboximidamide], for which the inhibition at 0.001 µM was -12%, the inhibition at 0.01 µM was determined as 17% and the inhibition at 0.1 µM is 77%.
Consider `COc1cc(C(F)(F)F)ccc1C1=NN(C(=N)N)CC1C` (stereo not drawn) [Example 68, 3-(2-Methoxy-4-(trifluoromethyl)phenyl)-4-methyl-4,5-dihydro-1H-pyrazole-1-carboximidamide], for which the inhibition at 0.1 µM came out at 32% and the inhibition at 1 µM came to 86%.
With `Cc1c(C2=NN(C(=N)N)C(C)C2)oc2ccccc12` (stereo not drawn) [Example 28, 5-Methyl-3-(3-methylbenzofuran-2-yl)-4,5-dihydro-1H-pyrazole-1-carboximidamide], the inhibition at 0.1 µM came to 63% and the inhibition at 1 µM turned out to be 95%.
As to `COc1ccc(NC(=N)N2CC(C)C(c3ccccc3O)=N2)cc1` (stereo not drawn) [Example 105, 3-(2-Hydroxyphenyl)-N-(4-methoxyphenyl)-4-methyl-4,5-dihydro-1H-pyrazole-1-carboximidamide], the inhibition at 0.001 µM amounted to 46%, the inhibition at 0.01 µM stood at 95% and the inhibition at 0.1 µM was determined as 106%.
For `CNC(=N)N1CCC(c2ccccc2Cl)=N1` [Example 19, 3-(2-Chlorophenyl)-N-methyl-4,5-dihydro-1H-pyrazole-1-carboximidamide], the inhibition at 0.1 µM is 34% and the inhibition at 1 µM was found to be 79%.
As for `CC1CN(C(=N)Nc2ccccc2)N=C1c1cccc(Cl)c1O` (stereo not drawn) [Example 89, 3-(3-Chloro-2-hydroxyphenyl)-4-methyl-N-phenyl-4,5-dihydro-1H-pyrazole-1-carboximidamide], the inhibition at 0.001 µM is 88%, the inhibition at 0.01 µM is 100% and the inhibition at 0.1 µM was found to be 97%.
In the same order, the values of `COc1ccccc1C1=NN(C(=N)Nc2ccc(C(F)(F)F)cc2)CC1C` (stereo not drawn) [Example 98, 3-(2-Methoxyphenyl)-4-methyl-N-(4-(trifluoromethyl)phenyl)-4,5-dihydro-1H-pyrazole-1-carboximidamide] are 5%, 41% and 86%.
For the compound `COc1ccc(C2=NN(C(=N)N)CC2)cc1` [Example 15, 3-(4-Methoxyphenyl)-4,5-dihydro-1H-pyrazole-1-carboximidamide, reference compound], the inhibition at 1 µM came to 13% and the inhibition at 10 µM was found to be 56%.
Turning to `CC1CN(C(=N)N[C@@H](C)c2ccccc2)N=C1c1ccccc1O` (stereo partly drawn) [Example 64, 3-(2-Hydroxyphenyl)-4-methyl-N—((S)-1-phenylethyl)-4,5-dihydro-1H-pyrazole-1-carboximidamide], the inhibition at 0.001 µM was found to be 23% and the inhibition at 0.01 µM was found to be 43%.
Take `CC1CN(C(=N)N)N=C1c1cccc2ccccc12` (stereo not drawn) [Example 24, 4-Methyl-3-(naphthalen-1-yl)-4,5-dihydro-1H-pyrazole-1-carboximidamide]: the inhibition at 0.01 µM amounted to 39%, the inhibition at 0.1 µM turned out to be 86% and the inhibition at 1 µM came out at 102%.
Consider `N=C(N)N1N=C(c2ccccc2Cl)C2CCCC21` (stereo not drawn) [Example 30, 3-(2-Chlorophenyl)-4,5,6,6a-tetrahydrocyclopenta[c]pyrazole-1(3aH)-carboximidamide], for which the inhibition at 0.1 µM stood at 44% and the inhibition at 1 µM came to 88%.
Take `CC1CN(C(=N)NO)N=C1c1ccccc1O` (stereo not drawn) [Example 44, N-Hydroxy-3-(2-hydroxyphenyl)-4-methyl-4,5-dihydro-1H-pyrazole-1-carboximidamide]: the inhibition at 0.001 µM was 12%, the inhibition at 0.01 µM was 30%, the inhibition at 0.1 µM was 85% and the inhibition at 1 µM was determined as 94%.
Turning to `N=C(N)N1CCC(c2cc(F)ccc2F)=N1` [Example 7, 3-(2,5-Difluorophenyl)-4,5-dihydro-1H-pyrazole-1-carboximidamide], the inhibition at 1 µM is 47% and the inhibition at 10 µM worked out at 94%.
On to `CC1CN(C(=N)N)N=C1c1cccc(Cl)c1O` (stereo not drawn) [Example 54, 3-(3-Chloro-2-hydroxyphenyl)-4-methyl-4,5-dihydro-1H-pyrazole-1-carboximidamide], for which the inhibition at 0.01 µM is 81%, the inhibition at 0.1 µM was 95% and the inhibition at 1 µM stood at 101%.
`CC1CN(C(=N)Nc2ccc(F)cc2)N=C1c1cccc(Cl)c1O` (stereo not drawn) [Example 109, 3-(3-Chloro-2-hydroxyphenyl)-N-(4-fluorophenyl)-4-methyl-4,5-dihydro-1H-pyrazole-1-carboximidamide]: the inhibition at 0.001 µM was 72%, the inhibition at 0.01 µM stood at 99% and the inhibition at 0.1 µM is 104%.
As to `CC1CN(C(=N)N)N=C1c1ccc(C(F)(F)F)cc1O` (stereo not drawn) [Example 69, 3-(2-Hydroxy-4-(trifluoromethyl)phenyl)-4-methyl-4,5-dihydro-1H-pyrazole-1-carboximidamide], the inhibition at 0.1 µM worked out at 70% and the inhibition at 1 µM turned out to be 97%.
As for `COc1ccccc1C1=NN(C(=N)Nc2ccc(Cl)cc2)CC1C` (stereo not drawn) [Example 102, N-(4-Chlorophenyl)-3-(2-methoxyphenyl)-4-methyl-4,5-dihydro-1H-pyrazole-1-carboximidamide], the inhibition at 0.001 µM came to 17%, the inhibition at 0.01 µM is 44% and the inhibition at 0.1 µM was found to be 92%.
Taken in the same sequence, the figures for `CC1CN(C(=N)NCC(F)(F)F)N=C1c1ccccc1O` (stereo not drawn) [Example 95, 3-(2-Hydroxyphenyl)-4-methyl-N-(2,2,2-trifluoroethyl)-4,5-dihydro-1H-pyrazole-1-carboximidamide] were 12%, 70% and 96%.

A word on the inhibition: it is the drop in the measured response relative to a control, in per cent.
